Experimental data from patent US20080306162A1, “Treatment of Inflammatory Disorders and Pain” (priority 2005, published 2008).

Key:
TNFα = assay: LPS mouse assay, serum TNFα by ELISA; format: in vivo, Balb C ByJ mice; conditions: i.p. or oral 30 minutes before 1 mg/kg LPS i.p., serum 2 hours after LPS
Description: (§1) 7 week old Balb C ByJ mice (24-28 g) were administered, either by i.p. (5 ml/kg) or oral (10 ml/kg) administration, with vehicle or test article. 30 minutes later these animals were challenged with an intraperitoneal injection of 1 mg/kg LPS. 2 hours after LPS challenge blood samples were collected under light isoflurane anaesthesia into normal tubes by retro-orbital puncture. Samples were allowed to clot at room temperature and then spun at 6000 g for 3 min at 4° C. Serum was stored at −20° C. until use. Serum TNFα and IL-10 levels were analysed in duplicate by ELISA technique.

IL-10 = assay: LPS mouse assay, serum IL-10 by ELISA; format: in vivo, Balb C ByJ mice; conditions: i.p. or oral 30 minutes before 1 mg/kg LPS i.p., serum 2 hours after LPS
Description: as §1

male Wistar rats = assay: Carrageenan paw assay; format: in vivo; conditions: rat
Description: Fasted (18 hour) male Wistar rats (105-130 g) were weighed and a basal mercury plethysmometer reading was taken of the right hind paw by submerging the paw in the mercury up to the tibiotarsal joint. Subsequently, vehicles, reference items and test articles were administered by oral gavage (10 ml/kg). Half an hour after treatment, 0.1 ml of 2% carrageenan in 0.9% saline was injected into the subplanatar area of the right hind paw. The right paw was measured again with the plethysmometer at 1, 2, 3, 4 and 5 hours after carrageenan administration.

Row | Structure (SMILES) | inhibition of TNFα production (TNFα; 10 mg/kg) [%] | inhibition of TNFα production (TNFα; 30 mg/kg) [%] | IL-10 production potentiated (IL-10; 10 mg/kg) [%] | IL-10 production potentiated (IL-10; 30 mg/kg) [%] | other results
1 | CC(C)(CO)NCC(O)c1cc(Cl)c(N)c(Cl)c1 (racemic) [Example 1, 2-[2-(4-amino-3,5-dichlorophenyl)-2-hydroxyethylamino]-2-methylpropan-1-ol] | 60 | 61 | 417 | 392 | –
2 | CC(C)(CO)NCC(O)c1cc(Cl)c(N)c(Cl)c1 (single isomer, unassigned) [2-[2-(4-amino-3,5-dichlorophenyl)-2-hydroxyethylamino]-2-methylpropan-1-ol] | – | – | – | – | inhibition in the carageenan paw assay (male Wistar rats; 0.3 mg/kg oral gavage): 18%; inhibition in the carageenan paw assay (male Wistar rats; 1 mg/kg oral gavage): 28%; inhibition in the carageenan paw assay (male Wistar rats; 3 mg/kg oral gavage): 26%; inhibition in the carageenan paw assay (male Wistar rats; 10 mg/kg oral gavage): 59%; inhibition in the carageenan paw assay (male Wistar rats; 30 mg/kg oral gavage): 71%; anti-inflammatory dose response in the carageenan paw assay (male Wistar rats; 0.3 to 30 mg/kg oral gavage): clear anti-inflammatory dose response curve
3 | CC(C)(CO)NCC(O)c1ccccc1 (stereo not shown) [Example 2, 2-(2-phenyl-2-hydroxyethylamino)-2-methyl-propan-1-ol] | 47 | 58 | 345 | 366 | –
4 | CC(C)(CO)NCC(O)c1ccc(F)cc1 (stereo not shown) [Example 3, 2-[2-(4-fluorophenyl)-2-hydroxyethylamino]-2-methylpropan-1-ol] | 37 | 37 | 106 | 125 | –
5 | CC(C)Cc1ccc(C(C)C(=O)O)cc1 (stereo not shown) [Ibuprofen, reference compound] | – | – | – | – | anti-inflammatory in the carageenan paw assay (male Wistar rats; 100 mg/kg oral gavage): 38%
